In a melting point compilation (Tetko et al.; mined from patent text by program, amines drawn as free bases though some values may be those of a salt):

Row | Compound | melting point [°C]
1 | COc1ccc(C(=O)c2sc(Nc3ccccc3)nc2NC(=O)Nc2ccc(F)cc2)cc1 | 177 to 178
2 | Fc1ccc(-c2ccc3[nH]c4c(ccc5cc[nH]c54)c3c2)c(F)c1 | > 250
3 | CNC(=O)CC1c2cc(C#N)ccc2OC(C)(C)C1O (stereo not given) | 141 to 142
4 | Cc1cc(-n2ccc(O)cc2=O)sc1C(=O)NCc1cccc(F)c1 | 140 to 142
5 | O=C1C(c2cc3c(cc2O)OCC3)c2ccc(F)cc2N1C(c1ccccc1)c1ccccc1 (stereo not given) | 121 to 123
6 | O=C(O)c1ccc2oc(-c3ccc(Cl)c(Cl)c3)cc2c1 | > 260
7 | NC(=O)c1ccc(CCN2CC=C(c3c[nH]c(-c4ccc(F)cc4)c3-c3ccncc3)CC2)cc1 | 202 to 204
8 | O=C(NC(=NCCCCc1cccnc1)NCCCc1c[nH]cn1)c1ccccc1 | 119 to 120
9 | CON=C(C)c1cc(C[C@H](NC(=O)c2c(Cl)cccc2Cl)C(=O)O)ccc1-c1ccccc1OC | 107
10 | CC(=O)OCCC1CCCN(C(=O)c2ccc(NC(=O)c3ccccc3Cl)nc2)c2ccc(Cl)cc21 (stereo not given) | 151 to 153
11 | O=C(NCc1ccccc1O)c1[nH]c2ccc(Cl)cc2c1S(=O)(=O)c1ccccc1 | 243 to 244
12 | Cn1ccnc1COc1ccccc1N | 114 to 116
13 | CCOc1cc(C(=CC#N)c2ccc(OC)c([N+](=O)[O-])c2)ccc1OC | 141 to 143
14 | CCc1nc2ccccn2c1S(N)(=O)=S (stereo not given) | 169 to 171
15 | O=[N+]([O-])c1ncc(Cl)cc1O | 97
16 | CCCN(CCC)CCc1ccc(O)c2nc[nH]c12 | 135 to 139
17 | COc1ccc(OCc2ccccc2)cc1C(=O)O | 114 to 116
18 | CCN(CC)c1ccc(C(=NCCO[N+](=O)[O-])NC#N)cn1 | 119
19 | CCN1CCN(c2nc(-c3ccc(OCCO)cc3OC)cc3ccccc23)CC1 | 140 to 142
20 | O=C1CCN(C(=O)Cl)c2cc(Cl)ccc21 | 150 to 153
21 | CC(C)(C)OC(=O)Nc1ccc(C#Cc2ccccc2F)cc1N | 137 to 139
22 | CCCc1c(OCc2ccccc2C(=O)OC)ccc(C(C)=O)c1O | 90 to 93
23 | CCCCCCCCCCCCCCCCCCOC(=O)C1CCC2OC2C1 (stereo not given) | 32 to 34
24 | CC(C)(C)NCC(O)COc1ccc2c(=O)cc(-c3cc(OCc4ccccc4)cc(OCc4ccccc4)c3)oc2c1 (stereo not given) | 170 to 171
25 | COc1ccccc1N1CCN(c2nc3cccccc-3c2C#N)CC1 | 141 to 143

Row | Compound | melting point [°C]
26 | CC(=O)NC[C@H]1CN(c2ccc(N3CCC(=C(C#N)n4cncn4)CC3)c(F)c2)C(=O)O1 | 194 to 196
27 | CCCCCCCCCCNC(=O)N(O)CCCC(=O)OCC | 68 to 69
28 | C=CCCCCCCCCNC(=O)N(C)O | 58 to 59
29 | Oc1ccc(-c2c3ccccc3cc3sc4ccccc4c23)cc1I | 125 to 128
30 | Cc1cc(CC2(Cc3ccnc(C)c3)c3ccccc3-c3ncccc32)ccn1 | 177 to 179
31 | Nc1ccc(Sc2ccccc2)cc1C(F)(F)F | 63 to 66.5
32 | Cc1ccc(C(=O)N2CCC3(CC2)OCCO3)cc1 | 59 to 61
33 | COc1ccc(COC(=O)C2N=CSCC2(C)O)cc1 (stereo not given) | 102 to 103
34 | CC(C)CC(CP(=O)(O)CNC(=O)c1ccccc1)C(=O)N(c1ccc(-c2ccccc2)cc1)[C@@H](C)C(=O)O (stereo not given in full) | 148 to 150
35 | FC(F)(F)/C(=C(\c1ccccc1)c1ccc(OCc2ccccc2)cc1)c1ccccc1 | 128 to 129
36 | O=C(O)c1cc(CC(C(=O)O)C(=O)O)c2ccccn2c1=O | > 250
37 | Cc1ccc(S(=O)(=O)n2ccc3c(Cl)ncnc32)cc1 | 143
38 | CC(C)(C)CC(C)(C)c1cc(N=Nc2ccc(-c3ccccc3)cc2[N+](=O)[O-])c(O)c(C(C)(C)c2ccccc2)c1 | 176 to 179
39 | COc1ccc(C(=O)Nc2c(Cl)cncc2Cl)c2c1oc1ccc(NC(C)=O)cc12 | 252
40 | O=C1c2ccccc2C(O)(C(F)(F)F)c2ccccc21 | 153 to 155
41 | COc1cc(O)c2c(c1OC)C(=O)C(O)=C(C)C2=O | 218 to 220
42 | COCn1ncc2cc(Cl)c(NC(=O)c3cc(C(F)(F)F)nn3-c3ncccc3Cl)c(C(=O)NC(C)C)c21 | 180 to 182
43 | Cn1cnc2c(N)cc(Br)cc21 | 170
44 | NNC(=S)Cc1ccc(F)cc1 | 150 to 152
45 | COc1cc2cc(CO)nc(-c3ccnc(-n4nc(-c5cccnc5)c5ccccc5c4=O)c3)c2cc1OC | > 250
46 | CCOC(=O)CCCc1cn(C(c2ccccc2)(c2ccccc2)c2ccccc2)cn1 | 134
47 | CC(C)(C)OC(=O)N(CCCn1ncc2cc(C(=O)O)ccc21)c1ccccn1 | 129 to 131
48 | O=[N+]([O-])c1ccccc1NCc1cc(F)cc(F)c1 | 104 to 105
49 | CC(C)(C)OC(=O)NN(C(=O)OC(C)(C)C)c1ccc(OCC(F)(F)F)cc1 | 140 to 141
50 | O=C1NC(=O)C(C2CCc3cc(O)ccc32)S1 (stereo not given) | 108 to 112

Row | Compound | melting point [°C]
51 | CCCc1c(OCc2ccc(C(=O)O)cc2F)ccc(C(C)=O)c1O | 203 to 206
52 | Cc1c(C)c2ccc(OCCCc3ccccc3)cc2oc1=O | 104
53 | COc1cccc(CCNC(=O)N(C)O)c1OC | 83 to 85
54 | O=c1[nH]c2ccc(Cl)cc2c(=O)n1CCCCN1CC=C(c2ccccc2)CC1 | 214 to 222
55 | O=C(NC(=O)c1cccs1)NC1CCN(Cc2c[nH]c3ccccc23)CC1 | 231 to 232
56 | CNc1nc(Cl)cc(NS(=O)(=O)c2cccc(C(F)(F)F)c2)n1 | 190 to 193
57 | CCCCCCC/C=C\CCCCCCCC(=O)CCCNC(C)=O | 51 to 52
58 | CC(C)(C)OC(=O)N1C(Cc2ccccc2)SC[C@H]1C(=O)O (stereo not given in full) | 156
59 | COc1ccc(C(CN)C(CN)c2ccc(Cl)cc2)cc1 (stereo not given) | 124 to 127
60 | CCOC(=O)c1cn(CC)c2nc(OC)c([N+](=O)[O-])cc2c1=O | 224 to 227
61 | COC(=O)c1ccc(Cc2cn(CC(=O)N(C)C)c3ccc(NC(=O)CC4CCCC4)cc23)c(OC)c1 | 129 to 132
62 | O=[N+]([O-])c1ccc(Oc2ccc(C(F)(F)F)cc2Cl)nc1Cl | 53 to 59
63 | Cc1cc([C@@H](O)[C@@H](C)N2CCC(O)(c3ccc(F)cc3)CC2)cc(C)c1O[Si](C(C)C)(C(C)C)C(C)C (relative stereo) | 186 to 187
64 | Cc1cc(O)n(-c2ccc(N3CCOCC3)nn2)n1 | 189 to 192
65 | N#Cc1ccc(CC(=O)Cc2ccc(C#N)cc2)cc1 | 149 to 150
66 | CCCCC1CCC(C2=C(Cl)C(=O)c3ccccc3C2=O)CC1 (stereo not given) | 107 to 110
67 | CC(C)(C)OC(=O)N=C(N)N(CCc1ccc(OCCC2Oc3ccccc3N(Cc3cccc(Cl)c3)C2=O)cc1)C(=O)OC(C)(C)C (stereo not given) | 74 to 78
68 | CCCCC1(CC)CS(=O)(=O)c2ccccc2N(c2ccccc2)C1=O (stereo not given) | 57.6
69 | O=C1c2cc3c(cc2CCC1Br)OCC3 (stereo not given) | 106
70 | O=C(NC1CCCCC1)c1c(O)c2cccnc2n(Cc2ccccc2)c1=O | 143
71 | Oc1ccc2c(c1)COc1c-2cc2ccc(O)cc2c1-c1ccccc1F | 240 to 242
72 | NC(=S)NN=C(CCCCl)c1ccccc1 | 128 to 130
73 | CCC1CC2C3CCC4=CC(=O)CCC4C3CCC2(C)C1OC(=O)CCl (stereo not given) | 135 to 136
74 | CCC(=O)Nc1cc(C2=NNC(=O)CC2C)ccc1N1CCOCC1 (stereo not given) | 193 to 196
75 | Fc1cc(Br)ccc1-c1ccc(Cl)cc1Cl | 63 to 65

Row | Compound | melting point [°C]
76 | O=C(O)C1=Cc2cc(O)ccc2S(=O)(=O)CC1 | 260 to 265
77 | O=C(O)CCCCCCCNS(=O)(=O)c1cccc(Cl)c1 | 85 to 86
78 | Nc1nc2cccnc2c2c1ncn2CC1(O)CCOCC1 | 225 to 226
79 | S=C(Nc1cccnc1)N1N=CCC1c1ccccc1 (stereo not given) | 156 to 158
80 | CC(=O)Nc1ccc(S(=O)(=O)Nc2nnc(S(N)(=O)=O)s2)cc1 | 280 to 281
81 | CC(C)(C)OC(=O)c1ncn2c1cc(N1CCN(C(=O)OC(C)(C)C)CC1)c1cc(Cl)ccc12 | 246 to 247
82 | COCOc1ccc(C(=O)OC)c(OCc2ccc(Cl)cc2Cl)c1C | 98.8 to 99
83 | COC(=O)C1(C)c2ccccc2-c2ccccc21 | 108 to 109
84 | CC(=O)NCc1cc(Br)cc2[nH]c(=O)c(=O)[nH]c12 | > 300
85 | Cc1ccccc1CC(=NC#N)NC(NC(=O)Cc1ccc2cccnc2c1)C(C)(C)C (stereo not given) | 165 to 166
86 | COC(=O)C(Cc1ccc([N+](=O)[O-])cc1)NC(=O)NCc1cccc(Oc2ccccc2)c1 (single isomer, unassigned; (+)) | 112 to 114
87 | CCOC(=O)[C@H]1O[C@@H]1C(=O)N[C@@H](COCC(C)C)CC(C)C | 60 to 63
88 | COc1ccc(C(=NOC(C)=O)c2ccc(Cl)cc2)c(O)c1 | 167
89 | CS(=O)(=O)N1CCS(=O)c2cccc(Cl)c2C1 (stereo not given) | 167 to 169
90 | CN(C)C1(c2ccccc2)CCC(=CC(=O)NCCCc2c[nH]c3ccccc23)CC1 (stereo not given) | 85 to 87
91 | Cn1ncc2c1-c1c(Oc3cc4c(cc3[N+](=O)[O-])OCO4)sc(C(N)=O)c1CC2 | 230 to 231
92 | Cc1cc(NS(=O)(=O)c2cccs2)c2[nH]c(C3=NCCS3)cc2c1C | 201 to 202
93 | NC(=O)c1ccc(NCc2cccc([N+](=O)[O-])c2)cc1 | 178 to 180
94 | COc1ccc(-c2ccc(CCC#N)cc2)cc1 | 105 to 107
95 | CC(=O)Nc1c(OCc2ccccc2)cc(Br)cc1N(C)C | 177
96 | O=C1N=CNC(=O)C1Cc1ccccc1C(F)(F)F (stereo not given) | > 290
97 | C1=C(/C=C/c2ccccc2)CCN(Cc2c[nH]c3ccccc23)C1 | 191 to 193
98 | CC(=O)c1ccc(-c2ccccc2[N+](=O)[O-])cc1 | 106 to 109
99 | CC1Cc2cc(Cl)c(Cl)cc2C(c2ccc([N+](=O)[O-])cc2)=NN1 (stereo not given) | 182 to 184
100 | Nc1nc2c(ncn2OCCCP(=O)(O)O)c(=O)[nH]1 | > 300
